In PubChem BioAssay (NCI):
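Compound exposure: 48 hours, 5 concentrations, 96-well plates. At the GI50, growth is halved. TGI denotes the concentration required for complete inhibition of growth.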

Tests used:
Experiment in all cases: NCI-60 cell line screen, 48 h
XF 498 CNS = tested on: XF 498 CNS
OVCAR-4 ovarian = tested on: OVCAR-4 ovarian
SN12C renal = tested on: SN12C renal
SNB-75 CNS = tested on: SNB-75 CNS
UO-31 renal = tested on: UO-31 renal
HCT-15 colon = tested on: HCT-15 colon
EKVX NSCLC = tested on: EKVX NSCLC
SNB-19 CNS = tested on: SNB-19 CNS
DMS 114 small cell lung = tested on: DMS 114 small cell lung
HL-60(TB) leukemia = tested on: HL-60(TB) leukemia
NCI/ADR-RES ovarian = tested on: NCI/ADR-RES ovarian

For `Nc1ccc2[nH]c3c(-c4ccccc4)nccc3c2c1`, which TGI (XF 498 CNS) is on record?
Its TGI is greater than 100 µM.

And the TGI (OVCAR-4 ovarian)?
Its TGI is greater than 75.5 µM.

And the TGI (SN12C renal)?
Its TGI is greater than 100 µM.

And the TGI (SNB-75 CNS)?
The TGI was greater than 92.7 µM.

What about the TGI (UO-31 renal) of the same molecule?
The TGI was greater than 100 µM.

And the TGI (HCT-15 colon)?
Its TGI is greater than 100 µM.

What about the TGI (EKVX NSCLC) of the same molecule?
The TGI was greater than 100 µM.

And the TGI (SNB-19 CNS)?
The TGI was greater than 100 µM.

And the TGI (DMS 114 small cell lung)?
Its TGI is greater than 100 µM.

And the TGI (HL-60(TB) leukemia)?
Its TGI is 38.2 µM.

And the TGI (NCI/ADR-RES ovarian)?
Its TGI is greater than 100 µM.

What does the source list for `C[C@]12CCc3nc(Nc4ccccc4)sc3C1=CC[C@@H]1[C@@H]2CC[C@]2(C)/C(=N/NC(N)=S)CC[C@@H]12`?
GI50 (OVCAR-4 ovarian): 7.86 µM; TGI (OVCAR-4 ovarian): > 100 µM; GI50 (SN12C renal): 3.52 µM; TGI (SN12C renal): > 100 µM; GI50 (UO-31 renal): 3.71 µM; TGI (UO-31 renal): > 100 µM; GI50 (HCT-15 colon): 1.64 µM; TGI (HCT-15 colon): 6.25 µM; GI50 (EKVX NSCLC): 19.2 µM; TGI (EKVX NSCLC): > 100 µM; GI50 (SNB-19 CNS): 10.3 µM; TGI (SNB-19 CNS): > 100 µM; GI50 (HL-60(TB) leukemia): 3.03 µM; TGI (HL-60(TB) leukemia): 17 µM; GI50 (NCI/ADR-RES ovarian): 4.01 µM; TGI (NCI/ADR-RES ovarian): > 100 µM

For `COc1ccc(/C(Cl)=C(\C=O)c2ccc(F)cc2)cc1OC`, which TGI (SN12C renal) is on record?
The TGI was 77.1 µM.

What about the TGI (SNB-75 CNS) of the same molecule?
Its TGI is 13.7 µM.

And the TGI (UO-31 renal)?
The TGI was 61.1 µM.

And the TGI (HCT-15 colon)?
The TGI was 83.3 µM.

And the TGI (EKVX NSCLC)?
Its TGI is 65.4 µM.

What about the TGI (SNB-19 CNS) of the same molecule?
The TGI was greater than 100 µM.

And the TGI (DMS 114 small cell lung)?
The TGI was 46.2 µM.

What about the TGI (HL-60(TB) leukemia) of the same molecule?
Its TGI is 37.5 µM.

What does the source list for `Cc1[nH]c(=O)[nH]c(=O)c1/C=C/C(=O)O`?
TGI (XF 498 CNS): > 1000 µM; TGI (OVCAR-4 ovarian): > 1000 µM; TGI (SN12C renal): > 1000 µM; TGI (SNB-75 CNS): > 1000 µM; TGI (UO-31 renal): > 1000 µM; TGI (HCT-15 colon): > 1000 µM; TGI (EKVX NSCLC): > 1000 µM; TGI (SNB-19 CNS): > 1000 µM; TGI (DMS 114 small cell lung): > 1000 µM; TGI (HL-60(TB) leukemia): > 1000 µM; TGI (NCI/ADR-RES ovarian): > 1000 µM

How did the TGI (OVCAR-4 ovarian) turn out when `N=C(N)c1ccc(N=Nc2c(O)ccc3c2[nH]c2ccccc23)cc1` was run?
The TGI was greater than 28.5 µM.

What about the TGI (SN12C renal) of the same molecule?
Its TGI is greater than 83.4 µM.

What about the TGI (SNB-75 CNS) of the same molecule?
Its TGI is greater than 100 µM.

And the TGI (UO-31 renal)?
Its TGI is greater than 90.9 µM.

What about the TGI (HCT-15 colon) of the same molecule?
Its TGI is greater than 100 µM.

And the TGI (EKVX NSCLC)?
Its TGI is greater than 100 µM.

And the TGI (SNB-19 CNS)?
The TGI was greater than 100 µM.

What about the TGI (HL-60(TB) leukemia) of the same molecule?
Its TGI is greater than 100 µM.

What about the TGI (NCI/ADR-RES ovarian) of the same molecule?
The TGI was greater than 100 µM.

`O=C(NC(Cc1ccc(I)cc1)C(=O)O)c1ccc(Br)cc1` (stereo unspecified) was tested. Which TGI (XF 498 CNS) did it give?
The TGI was greater than 100 µM.

What about the TGI (OVCAR-4 ovarian) of the same molecule?
The TGI was greater than 100 µM.

And the TGI (SN12C renal)?
The TGI was greater than 100 µM.

What about the TGI (SNB-75 CNS) of the same molecule?
The TGI was greater than 100 µM.

And the TGI (UO-31 renal)?
Its TGI is greater than 100 µM.

And the TGI (HCT-15 colon)?
The TGI was greater than 100 µM.

And the TGI (EKVX NSCLC)?
Its TGI is 31 µM.

And the TGI (SNB-19 CNS)?
The TGI was greater than 100 µM.

What about the TGI (DMS 114 small cell lung) of the same molecule?
Its TGI is greater than 100 µM.

And the TGI (HL-60(TB) leukemia)?
Its TGI is greater than 100 µM.

What about the TGI (NCI/ADR-RES ovarian) of the same molecule?
The TGI was greater than 100 µM.

Which TGI (OVCAR-4 ovarian) does the source give for `COc1cc(Nc2c3ccccc3nc3ccccc23)ccc1NS(C)(=O)=O` here?
The TGI was 12.3 µM.

And the TGI (SN12C renal)?
The TGI was 9.32 µM.

And the TGI (SNB-75 CNS)?
The TGI was 47.1 µM.

What about the TGI (UO-31 renal) of the same molecule?
Its TGI is 16.9 µM.

What about the TGI (EKVX NSCLC) of the same molecule?
Its TGI is 23.1 µM.

What about the TGI (SNB-19 CNS) of the same molecule?
The TGI was 48 µM.

What about the TGI (HL-60(TB) leukemia) of the same molecule?
Its TGI is 30.1 µM.

With `Cc1ccc(S(=O)(=O)OCC(=O)O)cc1` as the molecule, how does the TGI (OVCAR-4 ovarian) read?
Its TGI is greater than 100 µM.

What about the TGI (SN12C renal) of the same molecule?
Its TGI is greater than 100 µM.

And the TGI (UO-31 renal)?
Its TGI is greater than 100 µM.

What about the TGI (HCT-15 colon) of the same molecule?
Its TGI is greater than 100 µM.

And the TGI (EKVX NSCLC)?
The TGI was greater than 100 µM.

And the TGI (SNB-19 CNS)?
The TGI was greater than 100 µM.

What about the TGI (HL-60(TB) leukemia) of the same molecule?
The TGI was greater than 100 µM.

And the TGI (NCI/ADR-RES ovarian)?
The TGI was greater than 100 µM.
